Values of other authors in US12097177B2, “Therapeutic method for cat with chronic kidney disease” (Toray Industries, Inc., priority 2021, dated 2024).
Counter-ions that a name gives are not always drawn. Like-named read-outs stand apart in the source and are kept apart here.

Assays:
[1] = humans; cited from earlier work
[2] = rats; cited from earlier work
feline CKD [3] = details: in vivo; cited from earlier work
feline CKD [4] = details: in vivo; cited from earlier work; remark: listed apart in the source
feline CKD [5] = details: in vivo; cited from earlier work; remark: listed apart in the source

## CC#CC[C@H](C)[C@H](O)/C=C/[C@@H]1[C@H]2c3cccc(CCCC(=O)[O-])c3O[C@H]2C[C@H]1O.[Na+] (single isomer, unassigned) [BPS-314d]
[1]
  AUC of plasma BPS-314d when BPS is administered (fraction): ¼
  Cmax of plasma BPS-314d when BPS is administered (fraction): ¼
[2]
  AUC of plasma BPS-314d when BPS is administered (fraction): ¼
  Cmax of plasma BPS-314d when BPS is administered (fraction): ¼

## CCOC(=O)[C@H](CCc1ccccc1)N[C@H]1CCc2ccccc2N(CC(=O)O)C1=O [Benazepril hydrochloride, benazepril hydrochloride]
Feline CKD [3]
  progression of feline CKD stage: has not been found to inhibit progression of feline CKD stage
  proteinuria: lower the severity of proteinuria
  serum creatinine: inhibit elevation in serum creatinine

## CN1N=C2CCN(C(=O)[C@@H](COCc3ccccc3)NC(=O)C(C)(C)N)C[C@@]2(Cc2ccccc2)C1=O [capromorelin]
Feline CKD [4]
  body weight loss: inhibit body weight loss
  overall survival rate or observed survival rate: no improvement in the overall survival rate or the observed survival rate of feline CKD has been demonstrated

## CCCc1nc2c(C)cc(-c3nc4ccccc4n3C)cc2n1Cc1ccc(-c2ccccc2C(=O)O)cc1 [telmisartan]
Feline CKD [5]
  proteinuria: improve proteinuria of feline CKD
